What all share (type): cell-based
The target of one assay is T1, human A2A receptor (Homo sapiens, UniProt P29274).
T1 construct: expressed in transfected cells; host or cells: HEK293
Kind of assay: cAMP (HTRF) functional assay, recombinant HEK293 cells expressing human A2A receptor, agonist NECA. How it is done:
(§1) The functional activities of human A2A, A2B, A1 and A3 receptors were determined by quantification of cAMP, being the second messenger for adenosine receptors.
(§2) Cells were seeded into 384-well plates, forskolin, test compounds and agonists (CPA for A1- and IB-MECA for A3-receptor) were added. After 30 min incubation, HTRF reagents (cAMP dynamic 2, Cis Bio) were added and the cellular cAMP levels were determined using the ENVISION (Perkin Elmer) plate reader. Obtained raw data were normalized against the inhibitor control and the neural control (DMSO) and the normalized data were fitted using GeneData software.
For orientation: In TR-FRET formats the signal depends on donor and acceptor labels being close together.

The target of a further assay is T2, human A2B receptor (Homo sapiens, UniProt P29275).
T2 construct: expressed in transfected cells; host or cells: HEK293
T2 sequence (P29275 1-332): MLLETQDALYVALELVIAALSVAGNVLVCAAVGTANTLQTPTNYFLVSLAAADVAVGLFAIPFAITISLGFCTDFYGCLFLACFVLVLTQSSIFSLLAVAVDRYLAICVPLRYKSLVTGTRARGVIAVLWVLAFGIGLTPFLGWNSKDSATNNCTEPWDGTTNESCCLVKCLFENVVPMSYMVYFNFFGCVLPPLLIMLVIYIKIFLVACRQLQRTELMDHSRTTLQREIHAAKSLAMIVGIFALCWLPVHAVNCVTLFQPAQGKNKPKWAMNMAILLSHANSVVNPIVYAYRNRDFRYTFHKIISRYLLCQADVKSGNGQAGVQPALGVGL
Kind of assay: cAMP (HTRF) functional assay, recombinant HEK293 cells expressing human A2B receptor, agonist NECA. How it is done: as §1, §2

In the next assay the target is T3, human A1 receptor (Homo sapiens, UniProt P30542).
T3 construct: expressed in transfected cells; host or cells: CHO
T3 sequence (P30542 1-326): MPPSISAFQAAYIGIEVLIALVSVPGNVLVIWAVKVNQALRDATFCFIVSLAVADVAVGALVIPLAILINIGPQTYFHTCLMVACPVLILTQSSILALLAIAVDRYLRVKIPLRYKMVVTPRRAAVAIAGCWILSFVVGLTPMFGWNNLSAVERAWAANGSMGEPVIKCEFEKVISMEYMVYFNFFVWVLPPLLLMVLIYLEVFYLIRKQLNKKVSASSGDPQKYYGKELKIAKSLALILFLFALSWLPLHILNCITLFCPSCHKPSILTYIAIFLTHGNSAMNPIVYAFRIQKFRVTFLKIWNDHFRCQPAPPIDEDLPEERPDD
As to the kind of experiment: cAMP (HTRF) functional assay, recombinant CHO cells expressing human A1 receptor, forskolin + agonist CPA. How it is done: as §1
(§3) For human A1 and A3 receptors, recombinant CHO cells, expressing either A1 or A3-receptor, were used. As both receptors couple to Gi proteins, the assay protocol was adapted:
as §2

For another assay, the target named is T4, human A3 receptor (Homo sapiens, UniProt P0DMS8).
T4 construct: expressed in transfected cells; host or cells: CHO
T4 sequence (P0DMS8 1-318): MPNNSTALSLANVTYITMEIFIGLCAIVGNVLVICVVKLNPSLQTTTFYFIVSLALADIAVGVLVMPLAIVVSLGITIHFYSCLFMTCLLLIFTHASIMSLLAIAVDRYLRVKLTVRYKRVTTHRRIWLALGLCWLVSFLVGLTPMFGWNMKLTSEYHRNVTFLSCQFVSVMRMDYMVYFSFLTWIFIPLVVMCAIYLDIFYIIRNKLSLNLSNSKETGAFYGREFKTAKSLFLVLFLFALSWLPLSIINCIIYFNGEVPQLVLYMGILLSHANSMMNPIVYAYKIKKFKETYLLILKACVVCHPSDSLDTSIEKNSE
As to the kind of experiment: cAMP (HTRF) functional assay, recombinant CHO cells expressing human A3 receptor, forskolin + agonist IB-MECA. How it is done: as §1, §3, §2

The structures appear in SMILES notation.

By IC50 is commonly meant the point on the concentration scale where inhibition reaches its midpoint.

T1 sequence (P29274 whole entry): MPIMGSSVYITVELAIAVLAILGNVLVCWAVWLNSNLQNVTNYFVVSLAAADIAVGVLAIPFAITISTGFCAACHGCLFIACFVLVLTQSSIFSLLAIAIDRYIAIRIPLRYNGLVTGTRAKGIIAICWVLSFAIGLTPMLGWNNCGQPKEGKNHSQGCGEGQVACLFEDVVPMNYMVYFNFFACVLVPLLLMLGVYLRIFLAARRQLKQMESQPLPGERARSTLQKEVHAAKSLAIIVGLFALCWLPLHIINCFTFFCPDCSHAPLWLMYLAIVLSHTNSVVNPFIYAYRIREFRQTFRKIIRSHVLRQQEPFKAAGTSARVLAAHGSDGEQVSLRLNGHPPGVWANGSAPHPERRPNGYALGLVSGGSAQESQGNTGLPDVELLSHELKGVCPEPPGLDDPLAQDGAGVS

As to `COc1ncc(-c2ccccc2)c2sc(NC(=O)N3CCC4(CCCOC4)C3)nc12` (stereo not shown) [compound 52, 7-Oxa-2-aza-spiro[4.5]decane-2-carboxylic acid (4-methoxy-7-phenyl-thiazolo[4,5-c]pyridin-2-yl)-amide], the IC50 at human A2A receptor was < 10 nM; at human A2B receptor, < 100 nM; on human A1 receptor it was < 1000 nM; at human A3 receptor, > 1000 nM.
For `COc1ncc(N2CC3(CCCO3)C2)c2sc(NC(=O)c3cnn(C)c3)nc12` [compound 156, 1-Methyl-1H-pyrazole-4-carboxylic acid [4-methoxy-7-(5-oxa-2-aza-spiro[3.4]oct-2-yl)-thiazolo[4,5-c]pyridin-2-yl]-amide], in that order: < 100 nM, < 100 nM, > 1000 nM and < 1000 nM.
For `COc1ncc(-c2ccccc2)c2sc(NC(=O)N3CCC4(CCOCC4)C3)nc12` [compound 53, 8-Oxa-2-aza-spiro[4.5]decane-2-carboxylic acid (4-methoxy-7-phenyl-thiazolo[4,5-c]pyridin-2-yl)-amide], in that order: < 10 nM, < 100 nM, > 1000 nM and > 1000 nM.
For `COc1ncc(-c2cnn(C)c2)c2sc(NC(=O)N3CC[C@]4(CCOC4)C3)nc12` [compound 173, (S)-2-Oxa-7-aza-spiro[4.4]nonane-7-carboxylic acid [4-methoxy-7-(1-methyl-1H-pyrazol-4-yl)-thiazolo[4,5-c]pyridin-2-yl]-amide], the IC50 at human A2A receptor was < 10 nM; on human A2B receptor it was < 100 nM; on human A1 receptor, > 1000 nM; on human A3 receptor, > 1000 nM.
Turning to `COCCOc1cccc(-c2cnc(OC)c3nc(NC(=O)c4cnn(CCOC)c4)sc23)c1` [compound 233, N-{4-methoxy-7-[3-(2-methoxyethoxy)phenylH]-[1,3]thiazolo[4,5-c]pyridin-2-yl}-1-(2-methoxyethyl)-1H-pyrazole-4-carboxamide], the IC50 at human A2A receptor was < 10 nM; on human A2B receptor, < 10 nM; on human A1 receptor it was < 1000 nM; on human A3 receptor it was < 1000 nM.
With `COCc1ccc(C(=O)Nc2nc3c(OC)ncc(N4CCOCC4)c3s2)cc1` [compound 3, 4-Methoxymethyl-N-(4-methoxy-7-morpholin-4-yl-thiazolo[4,5-c]pyridin-2-yl)-benzamide], the IC50 on human A2A receptor is < 10 nM; at human A2B receptor, < 1000 nM; on human A1 receptor it was > 1000 nM; at human A3 receptor, < 1000 nM.
Regarding `COc1ncc(N2CCOCC2)c2sc(NC(=O)C3CC3)nc12` [compound 167, Cyclopropanecarboxylic acid (4-methoxy-7-morpholin-4-yl-thiazolo[4,5-c]pyridin-2-yl)-amide], the IC50 at human A2A receptor is < 10 nM; on human A2B receptor it was < 100 nM; on human A1 receptor, > 1000 nM; on human A3 receptor, > 1000 nM.
Take `COc1nc(Cl)c(-c2ccccc2)c2sc(NC(=O)N3CCC4(CCOCC4)C3)nc12` [compound 220, 8-Oxa-2-aza-spiro[4.5]decane-2-carboxylic acid (6-chloro-4-methoxy-7-phenyl-thiazolo[4,5-c]pyridin-2-yl)-amide]: the IC50 is < 10 nM at human A2A receptor, < 100 nM at human A2B receptor, > 1000 nM at human A1 receptor and > 1000 nM at human A3 receptor.
As for `COc1ncc(C2=CCOCC2)c2sc(NC(=O)c3cnn(C)c3)nc12` [compound 238, N-[7-(3,6-dihydro-2H-pyran-4-yl)-4-methoxy-[1,3]thiazolo[4,5-c]pyridin-2-yl]-1-methyl-1H-pyrazole-4-carboxamide], the IC50 was < 10 nM at human A2A receptor, < 10 nM on human A2B receptor, < 10 nM at human A1 receptor and < 1000 nM at human A3 receptor.
Regarding `COCCn1cc(C(=O)Nc2nc3c(OC)ncc(C4CCOCC4)c3s2)cn1` [compound 29, 1-(2-Methoxy-ethyl)-1H-pyrazole-4-carboxylic acid [4-methoxy-7-(tetrahydro-pyran-4-yl)-thiazolo[4,5-c]pyridin-2-yl]-2-amide], the IC50 on human A2A receptor is < 10 nM; on human A2B receptor, < 100 nM; at human A1 receptor it was < 1000 nM; at human A3 receptor it was < 1000 nM.
In the case of `COc1ncc(-c2ccccc2)c2sc(NC(=O)N3CC[C@@]4(CCCOC4)C3)nc12` [compound 204, (S)-7-Oxa-2-aza-spiro[4.5]decane-2-carboxylic acid (4-methoxy-7-phenyl-thiazolo[4,5-c]pyridin-2-yl)-amide], the IC50 on human A2A receptor was < 10 nM; at human A2B receptor, < 100 nM; at human A1 receptor it was < 1000 nM; on human A3 receptor it was > 1000 nM.
Regarding `COc1ncc(-c2ccccc2)c2sc(NC(=O)[C@H]3C[C@@H]3OC)nc12` (racemic) [compound 202, (1S,2S)-2-methoxy-N-{4-methoxy-7-phenyl-[1,3]thiazolo[4,5-c]pyridin-2-yl}cyclopropane-1-carboxamide], the IC50 at human A2A receptor was < 100 nM; at human A2B receptor, < 100 nM; at human A1 receptor, < 1000 nM; at human A3 receptor, < 1000 nM.
In the case of `COCCOc1cccc(-c2c(F)nc(OC)c3nc(NC(=O)N4CCC5(CCOCC5)C4)sc23)c1` [compound 234, N-{6-fluoro-4-methoxy-7-[3-(2-methoxyethoxy)phenyl]-[1,3]thiazolo[4,5-c]pyridin-2-yl}-8-oxa-2-azaspiro[4.5]decane-2-carboxamide], the concentration for half-maximal inhibition (IC50) at human A2A receptor was < 10 nM; on human A2B receptor, < 10 nM; at human A1 receptor it was < 100 nM; at human A3 receptor it was < 100 nM.
As to `COCc1ccc(C(=O)Nc2nc3c(OC)ncc(-c4cnn(C)c4)c3s2)cc1` [compound 14], the IC50 on human A2A receptor is < 10 nM; at human A2B receptor, < 1000 nM; on human A1 receptor, < 1000 nM; on human A3 receptor it was < 1000 nM.
Regarding `COc1ncc(-c2cccc(F)c2)c2sc(NC(=O)N3CCC4(CCOCC4)C3)nc12` [compound 194, 8-Oxa-2-aza-spiro[4.5]decane-2-carboxylic acid [7-(3-fluoro-phenyl)-4-methoxy-thiazolo[4,5-c]pyridin-2-yl]-amide], the IC50 is < 10 nM on human A2A receptor, < 100 nM at human A2B receptor, < 1000 nM on human A1 receptor and > 1000 nM on human A3 receptor.
Turning to `COc1ncc(-c2cccc(F)c2F)c2sc(NC(=O)N3CCC4(CCOCC4)C3)nc12` [compound 209, 8-Oxa-2-aza-spiro[4.5]decane-2-carboxylic acid [7-(2,3-difluoro-phenyl)-4-methoxy-thiazolo[4,5-c]pyridin-2-yl]-amide], the IC50 on human A2A receptor is < 10 nM; on human A2B receptor, < 100 nM; on human A1 receptor it was > 1000 nM; at human A3 receptor, > 1000 nM.
Regarding `COc1ncc(N2CCOCC2)c2sc(NC(=O)N3CCC(O)(Cc4ccccc4)CC3)nc12` [compound 7, 4-benzyl-4-hydroxy-N-[4-methoxy-7-(morpholin-4-yl)-[1,3]thiazolo[4,5-c]pyridin-2-yl]piperidine-1-carboxamide], the IC50 on human A2A receptor is < 100 nM; on human A2B receptor it was < 100 nM; on human A1 receptor it was < 1000 nM; at human A3 receptor it was > 1000 nM.
Turning to `COc1ncc(-c2cnn(C)c2)c2sc(NC(=O)N3CCC(C)(O)CC3)nc12` [compound 21, 4-Hydroxy-4-methyl-piperidine-1-carboxylic acid [4-methoxy-7-(1-methyl-1H-pyrazol-4-yl)-thiazolo[4,5-c]pyridin-2-yl]-amide], the IC50 is < 10 nM at human A2A receptor, < 100 nM on human A2B receptor, < 1000 nM at human A1 receptor and < 1000 nM on human A3 receptor.
Consider `COc1ncc(-c2cc(F)ccc2F)c2sc(NC(=O)N3CCC4(CCOCC4)C3)nc12` [compound 210, 8-Oxa-2-aza-spiro[4.5]decane-2-carboxylic acid [7-(2,5-difluoro-phenyl)-4-methoxy-thiazolo[4,5-c]pyridin-2-yl]-amide], for which the IC50 on human A2A receptor was < 10 nM; on human A2B receptor, < 100 nM; at human A1 receptor, > 1000 nM; on human A3 receptor, > 1000 nM.

Source of the values: patent US11186592B2, “Thiazolopyridine derivatives as adenosine receptor antagonists” (MERCK PATENT GMBH, priority 2017, dated 2021).
